Assay results taken from patent US20090118332A1, “Therapeutic Agents - 551” (AstraZeneca AB, priority 2006, published 2009).

What follows are compounds tested against T1, human Fatty Acid Synthase (Homo sapiens, UniProt P49327) (assay: Human FAS enzyme assay (decrease in NADPH fluorescence)). Conditions: % inhibition at a concentration of 100 μmolar.
T1 construct: made in house
Format: biochemical
Method in brief: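 In-house human FAS was preincubated with compound and NADPH for 15 min at room temperature in 0.1 M Tris pH 7.5 with EDTA, glutathione and BSA. Malonyl CoA and acetyl CoA (500 μM and 150 μM in the added mix) were then added for 60 min. IC50 came from time-zero-subtracted NADPH fluorescence (340/460 nm).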

T1 sequence (P49327 whole entry): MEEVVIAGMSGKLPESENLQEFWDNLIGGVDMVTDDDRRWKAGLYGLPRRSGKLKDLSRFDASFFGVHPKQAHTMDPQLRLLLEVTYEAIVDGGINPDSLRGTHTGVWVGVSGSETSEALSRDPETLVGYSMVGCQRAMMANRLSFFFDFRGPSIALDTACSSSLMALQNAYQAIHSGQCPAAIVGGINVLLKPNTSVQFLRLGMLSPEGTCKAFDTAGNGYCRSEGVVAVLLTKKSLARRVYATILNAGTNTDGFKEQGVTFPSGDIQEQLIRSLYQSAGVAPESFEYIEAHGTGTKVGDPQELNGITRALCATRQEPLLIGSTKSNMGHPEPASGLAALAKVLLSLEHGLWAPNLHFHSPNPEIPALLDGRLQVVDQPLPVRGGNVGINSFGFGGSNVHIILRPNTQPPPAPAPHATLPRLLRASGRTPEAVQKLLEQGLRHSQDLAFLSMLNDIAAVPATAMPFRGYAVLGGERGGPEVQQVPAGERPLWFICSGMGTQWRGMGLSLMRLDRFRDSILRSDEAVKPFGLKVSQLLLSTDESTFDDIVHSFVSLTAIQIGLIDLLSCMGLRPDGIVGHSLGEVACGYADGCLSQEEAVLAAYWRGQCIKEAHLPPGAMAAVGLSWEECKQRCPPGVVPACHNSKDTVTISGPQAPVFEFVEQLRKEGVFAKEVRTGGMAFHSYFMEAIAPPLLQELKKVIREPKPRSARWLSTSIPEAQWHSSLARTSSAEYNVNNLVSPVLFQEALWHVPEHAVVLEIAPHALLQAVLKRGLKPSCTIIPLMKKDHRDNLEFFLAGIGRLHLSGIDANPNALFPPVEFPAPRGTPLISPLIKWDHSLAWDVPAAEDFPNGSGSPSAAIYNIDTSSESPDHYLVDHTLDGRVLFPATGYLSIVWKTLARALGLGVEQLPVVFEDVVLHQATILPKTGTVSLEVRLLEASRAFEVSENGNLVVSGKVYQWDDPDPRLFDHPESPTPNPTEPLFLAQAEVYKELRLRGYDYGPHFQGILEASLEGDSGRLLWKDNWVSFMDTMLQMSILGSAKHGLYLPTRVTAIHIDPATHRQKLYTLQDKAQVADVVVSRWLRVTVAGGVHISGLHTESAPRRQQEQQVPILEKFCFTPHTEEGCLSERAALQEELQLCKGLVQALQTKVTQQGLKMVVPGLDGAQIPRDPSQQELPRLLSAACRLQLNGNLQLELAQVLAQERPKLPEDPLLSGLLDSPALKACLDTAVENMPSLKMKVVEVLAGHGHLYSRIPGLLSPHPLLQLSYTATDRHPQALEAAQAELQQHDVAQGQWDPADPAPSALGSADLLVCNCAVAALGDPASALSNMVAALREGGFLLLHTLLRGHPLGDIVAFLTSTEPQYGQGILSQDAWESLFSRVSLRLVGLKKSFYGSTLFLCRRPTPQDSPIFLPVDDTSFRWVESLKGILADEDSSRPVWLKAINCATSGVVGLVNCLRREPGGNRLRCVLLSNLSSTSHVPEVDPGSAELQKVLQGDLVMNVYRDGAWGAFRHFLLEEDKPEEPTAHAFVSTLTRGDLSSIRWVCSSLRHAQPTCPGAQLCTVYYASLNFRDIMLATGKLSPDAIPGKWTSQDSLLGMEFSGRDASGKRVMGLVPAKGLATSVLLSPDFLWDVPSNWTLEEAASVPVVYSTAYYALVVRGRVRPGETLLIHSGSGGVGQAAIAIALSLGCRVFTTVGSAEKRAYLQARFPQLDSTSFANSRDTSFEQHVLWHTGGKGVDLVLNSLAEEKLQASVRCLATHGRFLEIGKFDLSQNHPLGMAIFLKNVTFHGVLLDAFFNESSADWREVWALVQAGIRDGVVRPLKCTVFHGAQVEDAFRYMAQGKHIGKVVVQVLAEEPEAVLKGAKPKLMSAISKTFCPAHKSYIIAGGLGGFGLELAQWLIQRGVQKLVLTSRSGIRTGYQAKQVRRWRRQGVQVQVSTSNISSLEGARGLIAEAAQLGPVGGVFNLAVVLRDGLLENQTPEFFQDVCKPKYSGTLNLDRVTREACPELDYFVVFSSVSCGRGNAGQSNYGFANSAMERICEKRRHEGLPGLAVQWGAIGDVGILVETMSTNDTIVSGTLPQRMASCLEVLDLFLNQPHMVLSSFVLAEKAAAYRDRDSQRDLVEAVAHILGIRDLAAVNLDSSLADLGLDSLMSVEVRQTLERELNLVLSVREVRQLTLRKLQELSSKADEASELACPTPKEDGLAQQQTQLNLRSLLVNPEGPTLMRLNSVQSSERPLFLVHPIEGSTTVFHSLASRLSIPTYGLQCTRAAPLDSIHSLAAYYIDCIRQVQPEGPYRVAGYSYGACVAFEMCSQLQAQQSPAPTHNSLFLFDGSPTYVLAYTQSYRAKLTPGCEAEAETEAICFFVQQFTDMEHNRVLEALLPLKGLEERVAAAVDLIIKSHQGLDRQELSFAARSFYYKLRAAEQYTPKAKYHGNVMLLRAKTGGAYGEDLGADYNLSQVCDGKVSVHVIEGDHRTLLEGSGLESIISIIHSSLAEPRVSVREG

| SMILES | inhibition at 100 µM |
| --- | --- |
| Cc1cc(C)c(C(=O)N2CCC(c3ccc(C#N)cc3)CC2)cc1NC(=O)NCc1ccccc1 [Example 12, 3-benzyl-1-[5-[4-(4-cyanophenyl)piperidine-1-carbonyl]-2,4-dimethyl-phenyl]urea] | 84.6% |
| CC(=O)NCCNC(=O)Nc1cc(C(=O)N2CCC(c3ccc(F)cc3)CC2)ccc1C [Example 338, N-[2-[[5-[4-(4-fluorophenyl)piperidine-1-carbonyl]-2-methyl-phenyl]carbamoylamino]ethyl]acetamide] | 81.3% |
| Cc1ccc(C(=O)N2CCC(c3ccc(C(F)(F)F)cc3)CC2)cc1NC(=O)NCCN(C)C [Example 334, 3-(2-dimethylaminoethyl)-1-[2-methyl-5-[4-[4-(trifluoromethyl)phenyl]piperidine-1-carbonyl]phenyl]urea] | 92.6% |
| Cc1ccc(C(=O)N2CCC(c3ccc(C#N)cc3)CC2)cc1NC(=O)NCCCN1CCCC1 [Example 74, 1-[5-[4-(4-cyanophenyl)piperidine-1-carbonyl]-2-methyl-phenyl]-3-(3-pyrrolidin-1-ylpropyl)urea] | 89.6% |
| Cc1ccc(C(=O)N2CCC(c3ccc(C#N)cc3)CC2)cc1NC(=O)NCCC(=O)N1CCOCC1 [Example 127, 1-[5-[4-(4-cyanophenyl)piperidine-1-carbonyl]-2-methyl-phenyl]-3-(3-morpholin-4-yl-3-oxo-propyl)urea] | 93% |
| CCOCCCNC(=O)Nc1cc(C(=O)N2CCC(c3ccc(C#N)cc3)CC2)ccc1C [Example 158, 3-[5-[4-(4-cyanophenyl)piperidine-1-carbonyl]-2-methyl-phenyl]-1-(3-ethoxypropyl)urea] | 89.1% |
| Cc1ccc(C(=O)N2CCC(c3ccc(C#N)cc3)CC2)cc1NC(=O)NCc1cn(C)cn1 [Example 267, 1-[5-[4-(4-cyanophenyl)piperidine-1-carbonyl]-2-methyl-phenyl]-3-[(1-methylimidazol-4-yl)methyl]urea] | 90.9% |
| Cc1cc(CNC(=O)Nc2cc(C(=O)N3CCC(c4ccc(C#N)cc4)CC3)ccc2C)on1 [Example 245, 1-[5-[4-(4-cyanophenyl)piperidine-1-carbonyl]-2-methyl-phenyl]-3-[(3-methyl-1,2-oxazol-5-yl)methyl]urea] | 94.3% |
| CCCCNC(=O)Nc1cc(C(=O)N2CCC(c3ccc(C#N)cc3)CC2)ccc1C [Example 1, 1-butyl-3-[5-[4-(4-cyanophenyl)piperidine-1-carbonyl]-2-methyl-phenyl]urea] | 95.6% |
| Cc1ccc(C(=O)N2CCC(c3ccc(C#N)cc3)CC2)cc1NC(=O)NC1CONC1=O (centres unmarked) [Example 383, 1-[5-[4-(4-cyanophenyl)piperidine-1-carbonyl]-2-methylphenyl]-3-(3-oxo-1,2-oxazolidin-4-yl)urea] | 73.6% |
| Cc1ccc(C(=O)N2CCC(c3ccc(C#N)cc3)CC2)cc1NC(N)=O [Example 366, [5-[4-(4-cyanophenyl)piperidine-1-carbonyl]-2-methylphenyl]urea] | 101% |
| COc1cc(CNC(=O)Nc2cc(C(=O)N3CCC(c4ccc(C#N)cc4)CC3)ccc2C)cc(OC)c1OC [Example 44, 1-[5-[4-(4-cyanophenyl)piperidine-1-carbonyl]-2-methyl-phenyl]-3-[(3,4,5-trimethoxyphenyl)methyl]urea] | 87.9% |
| Cc1ccc(NC(=O)NCc2cccc(C#N)c2)cc1C(=O)N1CCC(c2ccc(C#N)cc2)CC1 [Example 47, 3-[(3-cyanophenyl)methyl]-1-[3-[4-(4-cyanophenyl)piperidine-1-carbonyl]-4-methyl-phenyl]urea] | 77.4% |
| Cc1ccc(C(=O)N2CCC(c3ccc(C#N)cc3)CC2)cc1NC(=O)NCCNC(=O)CO [Example 114, N-[2-[[5-[4-(4-cyanophenyl)piperidine-1-carbonyl]-2-methyl-phenyl]carbamoylamino]ethyl]-2-hydroxy-acetamide] | 89.4% |
| Cc1ccc(C(=O)N2CCC(c3ccc(C#N)cc3)CC2)cc1NC(=O)NCCC(=O)O [Example 125, 3-[[5-[4-(4-cyanophenyl)piperidine-1-carbonyl]-2-methyl-phenyl]carbamoylamino]propanoic acid] | 91.7% |
| Cc1ccc(C(=O)N2CCC(c3ccc(C#N)cc3)CC2)cc1NC(=O)N[C@@H](C)c1ccccc1 [Example 105, 1-[5-[4-(4-cyanophenyl)piperidine-1-carbonyl]-2-methyl-phenyl]-3-[(1S)-1-phenylethyl]urea] | 92.7% |

| SMILES | inhibition at 100 µM |
| --- | --- |
| Cc1ccc(C(=O)N2CCC(c3ccc(C#N)cc3)CC2)cc1NC(=O)NCCNC(=O)c1cccs1 [Example 117, N-[2-[[5-[4-(4-cyanophenyl)piperidine-1-carbonyl]-2-methyl-phenyl]carbamoylamino]ethyl]thiophene-2-carboxamide] | 84.5% |
| Cc1ccc(C(=O)N2CCC(c3ccc(C#N)cc3)CC2)cc1NC(=O)NCC(C)O (centres unmarked) [Example 183, 1-[5-[4-(4-cyanophenyl)piperidine-1-carbonyl]-2-methyl-phenyl]-3-(2-hydroxypropyl)urea] | 89.6% |
| Cc1ccc(C(=O)N2CCC(c3ccc(C#N)cc3)CC2)cc1NC(=O)N[C@H]1CCCC[C@@H]1NS(C)(=O)=O (relative stereo) [Example 315, 1-[5-[4-(4-cyanophenyl)piperidine-1-carbonyl]-2-methyl-phenyl]-3-[(trans)-2-methanesulfonamidocyclohexyl]urea] | 104% |
| Cc1ccc(C(=O)N2CCC(c3ccc(C#N)cc3)CC2)cc1NC(=O)NCc1nccs1 [Example 248, 1-[5-[4-(4-cyanophenyl)piperidine-1-carbonyl]-2-methyl-phenyl]-3-(1,3-thiazol-2-ylmethyl)urea] | 100% |
| COC(=O)CNC(=O)Nc1cc(C(=O)N2CCC(c3ccc(C#N)cc3)CC2)ccc1C [Example 72, Methyl 2-[[5-[4-(4-cyanophenyl)piperidine-1-carbonyl]-2-methyl-phenyl]carbamoylamino]acetate] | 80.1% |
| Cc1ccc(C(=O)N2CCC(c3ccc(C#N)cc3)CC2)cc1NC(=O)NC1CCC(N(C)C)CC1 (centres unmarked) [Example 256, 1-[5-[4-(4-cyanophenyl)piperidine-1-carbonyl]-2-methyl-phenyl]-3-(4-dimethylaminocyclohexyl)urea] | 98.7% |
| Cc1ccc(C(=O)N2CCC(c3ccc(C#N)cc3)CC2)cc1NC(=O)N1CCN(S(C)(=O)=O)CC1 [Example 322, N-[5-[4-(4-cyanophenyl)piperidine-1-carbonyl]-2-methyl-phenyl]-4-methylsulfonyl-piperazine-1-carboxamide] | 90.5% |
| Cc1ccc(C(=O)N2CCC(c3ccc(C#N)cc3)CC2)cc1NC(=O)NCCNC(=O)c1cnoc1C [Example 119, N-[2-[[5-[4-(4-cyanophenyl)piperidine-1-carbonyl]-2-methyl-phenyl]carbamoylamino]ethyl]-5-methyl-1,2-oxazole-4-carboxamide] | 89.2% |
| Cc1ccc(C(=O)N2CCC(c3ccc(C#N)cc3)CC2)cc1NC(=O)NCCc1cccs1 [Example 63, 1-[5-[4-(4-cyanophenyl)piperidine-1-carbonyl]-2-methyl-phenyl]-3-(2-thiophen-2-ylethyl)urea] | 93.4% |
| Cc1ccc(C(=O)N2CCC(c3ccc(C#N)cc3)CC2)cc1NC(=O)NCc1cnccn1 [Example 293, 1-[5-[4-(4-cyanophenyl)piperidine-1-carbonyl]-2-methyl-phenyl]-3-(pyrazin-2-ylmethyl)urea] | 92.5% |
| Cc1ccc(C(=O)N2CCC(c3ccccc3)CC2)cc1NC(=O)NC(C)C [Example 391, 1-[2-methyl-5-(4-phenylpiperidine-1-carbonyl)phenyl]-3-propan-2-ylurea] | 71% |
| Cc1ccc(C(=O)N2CCC(c3ccc(C#N)cc3)CC2)cc1NC(=O)N1CCN(C(=O)N(C)C)CC1 [Example 332, N-[5-[4-(4-cyanophenyl)piperidine-1-carbonyl]-2-methyl-phenyl]-N′,N′-dimethyl-piperazine-1,4-dicarboxamide] | 96.5% |
| CNCCNC(=O)Nc1cc(C(=O)N2CCC(c3ccc(C#N)cc3)CC2)ccc1C [Example 116, 1-[5-[4-(4-cyanophenyl)piperidine-1-carbonyl]-2-methyl-phenyl]-3-(2-methylaminoethyl)urea] | 86.2% |
| Cc1ccc(C(=O)N2CCC(c3ccc(C#N)cc3)CC2)cc1NC(=O)NC(C)(C)C [Example 31, 1-[5-[4-(4-cyanophenyl)piperidine-1-carbonyl]-2-methyl-phenyl]-3-tert-butyl-urea] | 83.3% |
| Cc1ccc(C(=O)N2CCC(c3ccc(C#N)cc3)CC2)cc1NC(=O)NCCOCCO [Example 189, 1-[5-[4-(4-cyanophenyl)piperidine-1-carbonyl]-2-methyl-phenyl]-3-[2-(2-hydroxyethoxy)ethyl]urea] | 85.6% |
| CSc1ccc(C(=O)N2CCC(c3ccc(C#N)cc3)CC2)cc1NC(=O)NC(C)C [Example 362, 3-[5-[4-(4-cyanophenyl)piperidine-1-carbonyl]-2-methylsulfanylphenyl]-1-propan-2-ylurea] | 87.9% |

Same assay, conditions: FAS enzyme assay, IC50 from fitted sigmoid curves

| SMILES | IC50, inhibition of human Fatty Acid Synthase |
| --- | --- |
| COc1cccc(C2CCN(C(=O)c3ccc(C)c(NC(=O)NC(C)C)c3)CC2)c1 [1-[5-[4-(3-methoxyphenyl)piperidine-1-carbonyl]-2-methylphenyl]-3-propan-2-ylurea] | do not have IC50s in the range of about 0.001 μM to about 30 μM |
| Cc1ccc(C(=O)N2CCC(c3ccc(C#N)cc3)CC2)cc1NC(=O)N(C)C(C)(C)C#N [3-[5-[4-(4-cyanophenyl)piperidine-1-carbonyl]-2-methylphenyl]-1-(2-cyanopropan-2-yl)-1-methylurea] | do not have IC50s in the range of about 0.001 μM to about 30 μM |
| COCCN(C)C(=O)Nc1cc(C(=O)N2CCC(c3ccc(C#N)cc3)CC2)ccc1C [3-[5-[4-(4-cyanophenyl)piperidine-1-carbonyl]-2-methylphenyl]-1-(2-methoxyethyl)-1-methylurea] | do not have IC50s in the range of about 0.001 μM to about 30 μM |
